Molecules are shown by their SMILES.

From article PMC8991199, “Promiscuity mapping of the S100 protein family using a high-throughput holdup assay” (Scientific Reports, 2022) come the findings set out here.

What all share (type): binding
Test [1] has as its target T1, S100A8 (Homo sapiens, UniProt P05109).
T1 sequence (P05109 1-93): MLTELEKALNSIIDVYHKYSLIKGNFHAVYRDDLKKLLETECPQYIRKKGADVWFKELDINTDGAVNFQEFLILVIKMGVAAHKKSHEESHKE
Kind of test: direct fluorescence polarization (FP), S100A8. The following applies: S100A8, 50 nM labeled foldamer, 20 mM HEPES pH 7.5, 150 mM NaCl, 1 mM CaCl2, 0.5 mM TCEP, 0.01% Tween20, quadratic fit, mean ± SEM, three technical repeats, threshold 1 mM. As to the method:
(§1) HTP (and also low-throughput) measurements generally need to be validated by an orthogonal approach to eliminate experimental artifacts. […] This way, we chose WL, IF, WW, YF, IL, VL, TW, RF, RR, TI, TM, and after resynthesizing with a fluorescent label at the C-terminus (Figs. S15–S26, Table S1), the S100ome was tested against the labeled foldamers by direct fluorescence polarization (FP) (Fig. 3A). In this assay, the association of the fluorescently labeled foldamer and the S100 protein of interest is monitored, through the change in polarization of the emitted light by the fluorophore upon the binding event. In direct FP, the presence of the fluorophore might change the binding affinity of some foldamers. […] Nevertheless, we assumed that the fluorophore would affect all foldamers that target the same binding site to the same degree, because the foldamer scaffold is rigid. Defining the threshold of detection at the dissociation constant of 1 mM, we identified 87 interactions between the selected foldamer fragments and the S100ome out of 220 possible interactions (Table 1, Fig. S4-14).
(§2) Briefly, S100 proteins were cloned into a modified pET15b vector with a TEV protease cleavable N-terminal His6-tag and expressed in Escherichia coli BL21 (DE3) cells, followed by Ni^2+-affinity chromatography. For HU assay, S100 proteins were further purified by either hydrophobic interaction chromatography or ion exchange chromatography without the cleavage of the N-terminal His6-tag applying standard conditions. For direct FP measurements, the N-terminal His6-tag was cleaved, and the S100 proteins were purified by hydrophobic interaction chromatography, ion exchange chromatography or size exclusion chromatography. The quality of the recombinant proteins was checked by SDS-PAGE analysis in all cases. The concentration of the recombinant S100 proteins was determined by UV spectrophotometry using the absorbance of Tyr and Trp residues.
(§3) In direct fluorescence polarization assays, S100 proteins were diluted in a buffer containing 50 nM labeled foldamer, 20 mM HEPES pH 7.5, 150 mM NaCl, 1 mM CaCl2, 0.5 mM TCEP and 0.01% Tween20. The dilution series (50 µl) were divided into three technical repeats and transferred (15 µl) to a 384-well microplate. In competitive fluorescence polarization assays, the buffer applied in direct measurements was supplemented with the S100 protein of interest to reach a saturation of 60–80%. This mixture was titrated with the competitor (i.e. the unlabeled peptide). Fluorescence polarization was measured in 8 different S100 concentrations (one of which contained no S100 protein) on a Synergy H4 plate reader using 485 ± 20 nm and 528 ± 20 nm band-pass filters for excitation and emission, respectively. The Kd values were obtained by fitting the data from the FP measurements with the python-based ProFit software using quadratic and competitive binding equation for direct and competitive FP, respectively. The detection threshold was based on two parameters. First, we rejected all fitted dissociation constants above 1 mM.
A general note: Fluorescence polarisation rises when a labelled molecule tumbles more slowly, as on binding a larger partner.

In test [2] the target is T2, S100A9 (Homo sapiens, UniProt P06702).
T2 sequence (P06702 1-114): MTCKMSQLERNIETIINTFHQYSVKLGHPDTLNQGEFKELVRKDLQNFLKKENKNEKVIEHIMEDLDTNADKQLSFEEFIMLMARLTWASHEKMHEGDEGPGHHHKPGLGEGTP
The experiment in a line: direct fluorescence polarization (FP), S100A9. Particulars: S100A9, 50 nM labeled foldamer, 20 mM HEPES pH 7.5, 150 mM NaCl, 1 mM CaCl2, 0.5 mM TCEP, 0.01% Tween20, quadratic fit, mean ± SEM, three technical repeats, threshold 1 mM. As to the method:
as §1, §2, §3

The target in test [3] is T3, S100A14 (Homo sapiens, UniProt Q9HCY8).
T3 sequence (Q9HCY8 1-104): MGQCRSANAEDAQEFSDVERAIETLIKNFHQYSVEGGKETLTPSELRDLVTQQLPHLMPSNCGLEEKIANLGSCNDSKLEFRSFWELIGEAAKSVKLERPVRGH
The experiment in a line: direct fluorescence polarization (FP), S100A14. The following applies: S100A14, 50 nM labeled foldamer, 20 mM HEPES pH 7.5, 150 mM NaCl, 1 mM CaCl2, 0.5 mM TCEP, 0.01% Tween20, quadratic fit, mean ± SEM, three technical repeats, threshold 1 mM. As to the method: as §1, §2, §3

For test [4], the target named is T4, S100A1 (Homo sapiens, UniProt P23297).
T4 sequence (P23297 1-94): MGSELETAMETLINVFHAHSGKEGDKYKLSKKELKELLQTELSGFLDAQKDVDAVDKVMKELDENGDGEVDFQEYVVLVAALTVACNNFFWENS
The experiment in a line: direct fluorescence polarization (FP), S100A1. Particulars: S100A1, 50 nM labeled foldamer, 20 mM HEPES pH 7.5, 150 mM NaCl, 1 mM CaCl2, 0.5 mM TCEP, 0.01% Tween20, quadratic fit, mean ± SEM, three technical repeats, threshold 1 mM.
Source text: HTP (and also low-throughput) measurements generally need to be validated by an orthogonal approach to eliminate experimental artifacts. […] In this assay, the association of the fluorescently labeled foldamer and the S100 protein of interest is monitored, through the change in polarization of the emitted light by the fluorophore upon the binding event. In direct FP, the presence of the fluorophore might change the binding affinity of some foldamers. […] Nevertheless, we assumed that the fluorophore would affect all foldamers that target the same binding site to the same degree, because the foldamer scaffold is rigid.
as §2, §3

In test [5] the target is T5, S100A15 (Homo sapiens, UniProt Q86SG5).
T5 sequence (Q86SG5 1-101): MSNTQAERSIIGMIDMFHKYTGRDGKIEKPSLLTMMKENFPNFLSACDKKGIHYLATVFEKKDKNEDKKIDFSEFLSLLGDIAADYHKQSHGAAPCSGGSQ
Kind of test: direct fluorescence polarization (FP), S100A15. The following applies: S100A15, 50 nM labeled foldamer, 20 mM HEPES pH 7.5, 150 mM NaCl, 1 mM CaCl2, 0.5 mM TCEP, 0.01% Tween20, quadratic fit, mean ± SEM, three technical repeats, threshold 1 mM. As to the method:
as §1, §2, §3

The target of test [6] is T6, S100A12 (Homo sapiens, UniProt P80511).
T6 sequence (P80511 1-92): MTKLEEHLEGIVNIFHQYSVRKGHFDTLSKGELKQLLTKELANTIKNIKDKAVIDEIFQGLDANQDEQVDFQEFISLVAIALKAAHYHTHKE
Kind of test: direct fluorescence polarization (FP), S100A12. Particulars: S100A12, 50 nM labeled foldamer, 20 mM HEPES pH 7.5, 150 mM NaCl, 1 mM CaCl2, 0.5 mM TCEP, 0.01% Tween20, quadratic fit, mean ± SEM, three technical repeats, threshold 1 mM. As to the method:
as §1, §2, §3

With `N=C(N)NCCC[C@@H](CC(=O)N[C@H]1CCCC[C@@H]1C(=O)NCC(=O)N[C@@H](CCCCNC(=O)c1ccc2c(c1)C1(OC2=O)c2ccc(O)cc2Oc2cc(O)ccc21)C(N)=O)NC(=O)[C@H]1CCCC[C@@H]1NC(=O)[C@H]1CCCC[C@@H]1NC(=O)C[C@H](CCCNC(=N)N)NC(=O)[C@H]1CCCC[C@@H]1N` [fRR], the equilibrium dissociation constant (Kd) in test [1] is > 1 mM; in test [2], > 1 mM; in test [3] it was > 1 mM; in test [4], 0.28 ± 0.038 mM; in test [5], > 1 mM; in test [6], > 1 mM.
As to `N=C(N)NCCC[C@@H](CC(=O)N[C@H]1CCCC[C@@H]1C(=O)N[C@H]1CCCC[C@@H]1C(=O)N[C@H](CC(=O)N[C@H]1CCCC[C@@H]1C(=O)NCC(=O)N[C@@H](CCCCNC(=O)c1ccc2c(c1)C1(OC2=O)c2ccc(O)cc2Oc2cc(O)ccc21)C(N)=O)Cc1ccccc1)NC(=O)[C@H]1CCCC[C@@H]1N` [fRF], the Kd in test [1] was > 1 mM; in test [2], > 1 mM; in test [3] it was > 1 mM; in test [4], 0.413 ± 0.081 mM; in test [5], > 1 mM; in test [6] it was > 1 mM.
With `NC(=O)[C@H](CCCCNC(=O)c1ccc2c(c1)C1(OC2=O)c2ccc(O)cc2Oc2cc(O)ccc21)NC(=O)CNC(=O)[C@H]1CCCC[C@@H]1NC(=O)C[C@H](Cc1c[nH]c2ccccc12)NC(=O)[C@H]1CCCC[C@@H]1NC(=O)[C@H]1CCCC[C@@H]1NC(=O)C[C@H](Cc1c[nH]c2ccccc12)NC(=O)[C@H]1CCCC[C@@H]1N` [fWW], the Kd is > 1 mM in test [1]; > 1 mM in test [2]; > 1 mM in test [3]; 0.11 ± 0.019 mM in test [4]; > 1 mM in test [5]; > 1 mM in test [6].
As for `CC(C)C[C@@H](CC(=O)N[C@H]1CCCC[C@@H]1C(=O)NCC(=O)N[C@@H](CCCCNC(=O)c1ccc2c(c1)C1(OC2=O)c2ccc(O)cc2Oc2cc(O)ccc21)C(N)=O)NC(=O)[C@H]1CCCC[C@@H]1NC(=O)[C@H]1CCCC[C@@H]1NC(=O)C[C@H](Cc1c[nH]c2ccccc12)NC(=O)[C@H]1CCCC[C@@H]1N` [fWL], the Kd was 0.074 ± 0.0035 mM in test [1]; > 1 mM in test [2]; > 1 mM in test [3]; 0.053 ± 0.0052 mM in test [4]; 0.039 ± 0.0024 mM in test [5]; 0.254 ± 0.113 mM in test [6].
For the molecule `CSCC[C@@H](CC(=O)N[C@H]1CCCC[C@@H]1C(=O)NCC(=O)N[C@@H](CCCCNC(=O)c1ccc2c(c1)C1(OC2=O)c2ccc(O)cc2Oc2cc(O)ccc21)C(N)=O)NC(=O)[C@H]1CCCC[C@@H]1NC(=O)[C@H]1CCCC[C@@H]1NC(=O)C[C@@H](NC(=O)[C@H]1CCCC[C@@H]1N)[C@@H](C)O` [fTM], the Kd in test [1], in test [2], in test [3], in test [4], in test [5] and in test [6] was > 1 mM in each case.
Take `CC[C@H](C)[C@@H](CC(=O)N[C@H]1CCCC[C@@H]1C(=O)N[C@H]1CCCC[C@@H]1C(=O)N[C@H](CC(=O)N[C@H]1CCCC[C@@H]1C(=O)NCC(=O)N[C@@H](CCCCNC(=O)c1ccc2c(c1)C1(OC2=O)c2ccc(O)cc2Oc2cc(O)ccc21)C(N)=O)Cc1ccccc1)NC(=O)[C@H]1CCCC[C@@H]1N` [fIF]: the dissociation constant (Kd) is 0.75 ± 0.046 mM in test [1]; > 1 mM in test [2]; > 1 mM in test [3]; 0.21 ± 0.013 mM in test [4]; > 1 mM in test [5]; 0.59 ± 0.039 mM in test [6].
On to `CC[C@H](C)[C@@H](CC(=O)N[C@H]1CCCC[C@@H]1C(=O)N[C@H]1CCCC[C@@H]1C(=O)N[C@H](CC(=O)N[C@H]1CCCC[C@@H]1C(=O)NCC(=O)N[C@@H](CCCCNC(=O)c1ccc2c(c1)C1(OC2=O)c2ccc(O)cc2Oc2cc(O)ccc21)C(N)=O)CC(C)C)NC(=O)[C@H]1CCCC[C@@H]1N` [fIL], for which the Kd in test [1], in test [2], in test [3], in test [5] and in test [6] was > 1 mM throughout.

What is called Kd is the constant that tells how readily two partners part at equilibrium.
